Test results published in patent publication US20240058283A1, “THE MODE OF ACTION OF N-MeDCPA ON TRPC CHANNELS” (West Virginia University Board of Governors on Behalf of …, priority 2022, published 2024).

Legend:
[1] = biological target: T1, TRPC5 (Homo sapiens, UniProt Q9UL62); test: FIG. 4 TRPC5 overexpressing cells, fura, OAG in the presence of Ca2+; assay type: cell-based; conditions: TRPC5 O/E cells, N=4
T1 construct: expressed in transfected cells; host or cells: HEK293 (transient transfection)
T1 sequence (Q9UL62 1-973): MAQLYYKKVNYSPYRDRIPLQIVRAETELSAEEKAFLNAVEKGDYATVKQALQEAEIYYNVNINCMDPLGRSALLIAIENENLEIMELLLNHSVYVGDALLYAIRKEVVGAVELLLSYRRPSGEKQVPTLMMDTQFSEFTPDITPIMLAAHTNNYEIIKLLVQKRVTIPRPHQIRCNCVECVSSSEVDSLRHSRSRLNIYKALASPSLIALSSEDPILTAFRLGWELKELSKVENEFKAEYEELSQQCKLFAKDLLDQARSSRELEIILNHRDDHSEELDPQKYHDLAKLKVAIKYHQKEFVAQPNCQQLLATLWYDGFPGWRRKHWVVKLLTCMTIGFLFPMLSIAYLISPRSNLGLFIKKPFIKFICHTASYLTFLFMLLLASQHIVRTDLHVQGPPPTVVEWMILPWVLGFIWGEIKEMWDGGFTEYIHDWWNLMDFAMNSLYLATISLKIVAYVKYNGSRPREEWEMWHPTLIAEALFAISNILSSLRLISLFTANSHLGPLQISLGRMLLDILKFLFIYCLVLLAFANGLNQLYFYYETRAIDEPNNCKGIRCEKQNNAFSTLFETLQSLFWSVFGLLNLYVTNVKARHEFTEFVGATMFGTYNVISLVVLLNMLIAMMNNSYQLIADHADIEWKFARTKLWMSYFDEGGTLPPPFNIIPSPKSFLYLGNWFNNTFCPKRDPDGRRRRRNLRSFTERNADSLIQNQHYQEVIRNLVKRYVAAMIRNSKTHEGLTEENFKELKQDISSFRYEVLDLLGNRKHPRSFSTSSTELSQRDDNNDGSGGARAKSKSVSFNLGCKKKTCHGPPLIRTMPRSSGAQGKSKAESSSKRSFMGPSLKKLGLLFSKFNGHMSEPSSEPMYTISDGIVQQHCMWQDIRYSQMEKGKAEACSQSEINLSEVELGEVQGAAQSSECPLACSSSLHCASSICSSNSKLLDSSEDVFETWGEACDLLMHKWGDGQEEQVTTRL
Source text: The assay was done in the presence of Ca^2+. OAG (1-Oleoyl-2-acetyl-sn-glycerol) is a cell permeable DAG analog and directly activates these TRPC channels (i.e. TRPC4 and TRPC5).

[2] = test system: Mouse splenic monocytes; test: Osteoclast differentiation of mouse splenic monocytes; assay type: cell-based; conditions: 21 days of culture with RANKL+m-CSF; 100 nM ELP-004
Method: ELP-004 blocks TNF-α-induced osteoclast differentiation. Mouse splenic monocytes were induced to differentiate into osteoclasts. Results were obtained of osteoclast cells after 21 days of culture with RANKL+m-CSF alone or with the addition of 100 nM ELP-004. […] Thus, ELP-004 inhibits osteoclastogenesis.

[3] = test system: CYP enzymes; test: Induction of CYP enzymes; assay type: in vitro ADME

CCC(=O)N(C)c1ccc(Cl)c(Cl)c1 [ELP-004, N-(3,4-dichlorophenyl)-N-methylpropanamide]
maximal inhibition of TRPC5 against the >50% threshold [1]: does not reach the threshold of >50% inhibition
IC50 ([1]; OAG, Ca2+ present): 11 nM
development of multinucleated osteoclasts [2]: inhibited development of multinucleated osteoclasts
effect on induction of CYP enzymes [3]: no deleterious effect on induction of CYP enzymes
